A word on the IC50: it is the concentration that gives 50% inhibition. For orientation: Ki means the dissociation constant of the complex between target and ligand, obtained from inhibition or displacement.

These results are taken from paper PMC11243598, “Inhibition of Monoamine Oxidases by Pyridazinobenzylpiperidine Derivatives” (Molecules, 2024).

Series [1] concerns MAO-B. Conditions: cited from earlier work.
A short description of series [2]: PAMPA for blood-brain barrier permeation. It is filed as in vitro ADME. Conditions: for Prediction (BBB permeation class): class from Pe; for Experimental Pe / Papp: PAMPA-BBB, pH 7.4; for Papp: read-out: Experimental Pe.
Series [3] addresses T1, MAO-B (Homo sapiens, UniProt P27338).
T1 sequence (P27338 1-520): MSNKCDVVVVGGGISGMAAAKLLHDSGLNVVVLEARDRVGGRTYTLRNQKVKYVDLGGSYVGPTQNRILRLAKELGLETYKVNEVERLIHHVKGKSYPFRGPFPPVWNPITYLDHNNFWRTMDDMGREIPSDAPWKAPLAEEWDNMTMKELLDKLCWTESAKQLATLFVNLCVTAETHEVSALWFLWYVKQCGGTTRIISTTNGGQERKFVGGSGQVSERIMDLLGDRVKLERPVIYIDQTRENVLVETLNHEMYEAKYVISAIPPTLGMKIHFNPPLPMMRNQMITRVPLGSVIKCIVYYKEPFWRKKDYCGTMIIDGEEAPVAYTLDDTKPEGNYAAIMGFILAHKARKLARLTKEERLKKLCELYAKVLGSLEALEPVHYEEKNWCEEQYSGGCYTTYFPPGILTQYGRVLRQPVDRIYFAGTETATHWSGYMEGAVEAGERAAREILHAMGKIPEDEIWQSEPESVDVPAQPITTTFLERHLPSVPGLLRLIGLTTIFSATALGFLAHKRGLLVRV
Briefly: Reversibility of MAO-B inhibition by dialysis. The series is classed as biochemical. On the set-up: purchased Sigma-Aldrich. The following applies: for Reversibility of MAO-B inhibition: dialysis, compared with safinamide and pargyline.

Series [4] concerns the target T1, MAO-B. Conditions: ratio of IC50 values within the S series.
The target in series [5] is T1, MAO-B. The series is described as follows: MAO-B inhibition kinetics (Lineweaver-Burk and secondary plots). It is filed as biochemical. Also on record: purchased Sigma-Aldrich. The following applies: for Type of MAO-B inhibition: LB plots, five substrate and three inhibitor concentrations; for Ki: secondary plot of LB slopes, benzylamine substrate.
The next series deals with T2, hMAO-A (Homo sapiens, UniProt P21397).
T2 sequence (P21397 1-527): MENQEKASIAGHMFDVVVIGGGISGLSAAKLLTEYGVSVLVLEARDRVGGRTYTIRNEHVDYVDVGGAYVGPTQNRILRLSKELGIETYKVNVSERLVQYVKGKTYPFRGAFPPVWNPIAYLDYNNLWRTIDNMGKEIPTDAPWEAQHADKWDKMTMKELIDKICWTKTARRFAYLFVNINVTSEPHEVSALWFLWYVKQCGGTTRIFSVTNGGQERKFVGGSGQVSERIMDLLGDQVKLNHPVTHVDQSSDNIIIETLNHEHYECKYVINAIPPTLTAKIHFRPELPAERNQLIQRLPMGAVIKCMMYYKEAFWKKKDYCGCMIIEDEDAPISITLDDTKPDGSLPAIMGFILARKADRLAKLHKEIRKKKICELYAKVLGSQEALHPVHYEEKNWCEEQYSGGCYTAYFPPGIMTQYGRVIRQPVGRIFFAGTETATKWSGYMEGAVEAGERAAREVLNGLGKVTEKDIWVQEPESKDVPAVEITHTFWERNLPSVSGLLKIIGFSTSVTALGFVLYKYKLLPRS
The series is described as follows: Inhibition of recombinant hMAO-A, kynuramine substrate, continuous absorbance method. The following applies: for remaining activity at 10 µM: read-out: Residual Activity at 10 µM (%) MAO-A.

Series [6] has as its target T1, MAO-B. The series is described as follows: biochemical. Conditions: for remaining activity at 10 µM: read-out: Residual Activity at 10 µM (%) MAO-B.

Consider `O=C(Cn1nc(N2CCOCC2)ccc1=O)NN=Cc1ccc(Cl)cc1` [TR16], for which, in the series with MAO-B [1], the IC50 is 170 nM.
For `C#CCN(C)[C@H](C)Cc1ccccc1` [Selegiline, reference compound], the “Prediction (BBB permeation class)” value in series [2] is reported as “CNS+ (Pe (10^−6 cm·s^−1) > 4.00: CNS+ (high permeation))”.
For `O=C(Cn1nc(N2CCC(Cc3ccccc3)CC2)ccc1=O)NN=Cc1cccc(Cl)c1` [Compound S5, N′-3-chlorobenzylidene-2-(3-(4-benzylpiperidin-1-yl)-6-oxopyridazin-1(6H)-yl)acetohydrazide], in series [2], the “Experimental Pe” value turned out to be 5.75 ×10⁻⁶ cm/s, the Papp turned out to be 5.75 ± 0.13 ×10⁻⁶ cm/s and the “Prediction (BBB permeation class)” value is on record as “CNS+ (Pe (10^−6 cm·s^−1) > 4.00: CNS+ (high permeation))”. At MAO-B [3], the “Reversibility of MAO-B inhibition” value is “reversible”. Besides, on MAO-B [4], the “Times higher MAO-B inhibition than other derivatives” value is reported as 4.82–53.94 times. In addition, on MAO-B [5], the “Type of MAO-B inhibition” value is reported as “competitive” and the Ki was found to be 155 ± 50 nM. Also, at hMAO-A, the IC50 came to 3860 ± 770 nM and the remaining activity at 10 µM was 25.6 ± 3.85%. Moreover, on MAO-B [6], half-maximal inhibition (IC50) required 203 ± 4 nM and the remaining activity at 10 µM is -24.6 ± 8.51%.
On to `C[C@H](NCc1ccc(OCc2cccc(F)c2)cc1)C(N)=O` [Safinamide, reference compound], for which, on MAO-B [3] (about 2.0 times IC50 (S5 0.4 μM, S16 2.0 μM), 30 min pre-incubation, read-out: Residual MAO-B activity before recovery, undialyzed (AU)), the activity was 28.3%. Also, the remaining activity at 10 µM at hMAO-A was 69 ± 1.36%; on MAO-B [6], -15.6 ± 0.86%.
`N#Cc1ccccc1C=NNC(=O)Cn1nc(N2CCC(Cc3ccccc3)CC2)ccc1=O` [Compound S16, N′-2-cyanobenzylidene-2-(3-(4-benzylpiperidin-1-yl)-6-oxopyridazin-1(6H)-yl)acetohydrazide]: in series [2], the “Experimental Pe” value was found to be 3.78 ×10⁻⁶ cm/s and the Papp turned out to be 3.78 ± 0.2 ×10⁻⁶ cm/s. Moreover, on MAO-B [3], the “Reversibility of MAO-B inhibition” value is reported as “reversible”. For the same compound, on MAO-B [5], the “Type of MAO-B inhibition” value was “competitive” and the Ki was determined as 721 ± 74 nM. In addition, on hMAO-A, the IC50 came to 6150 ± 305 nM and the remaining activity at 10 µM came out at 33.2 ± 9.25%. Further, on MAO-B [6], the IC50 was found to be 979 ± 206 nM and the remaining activity at 10 µM was -12.9 ± 1.14%.
Take `COc1cccc(C=NNC(=O)Cn2nc(N3CCC(Cc4ccccc4)CC3)ccc2=O)c1` [Compound S11]: at hMAO-A, the half-maximal inhibitory concentration (IC50) came to 5064 ± 6 nM and the remaining activity at 10 µM was 16.6 ± 9.23%. Further, at MAO-B [6], inhibition was half-maximal at 1710 ± 437 nM (IC50) and the remaining activity at 10 µM turned out to be 14.5 ± 1.14%.
Regarding `COc1cc(C=NNC(=O)Cn2nc(N3CCC(Cc4ccccc4)CC3)ccc2=O)cc(OC)c1OC` [Compound S23, N′-3,4,5-trimethoxybenzylidene-2-(3-(4-benzylpiperidin-1-yl)-6-oxopyridazin-1(6H)-yl)acetohydrazide], the IC50 came to 28400 ± 2950 nM on hMAO-A and 10900 ± 405 nM against MAO-B [6]. The remaining activity at 10 µM on hMAO-A was 78.79 ± 0.3%; on MAO-B [6] it was 53.1 ± 2.67%.
